The term logD denotes the decadic logarithm of the distribution of all forms, ionised or not, between an organic phase and buffer at a given pH. A high value points to higher lipophilicity. What is called ED50 is the dose that gives a 50% effect, or the effect in half of the subjects. A lower ED50 goes with an effect at a small dose.

Data on 3 compounds can be found in patent publication US6495584B1, “Use of 3-(1H-imidazol-4-ylmethyl)-indan-5-ol in the manufacture of a medicament for intraspinal, intrathecal or epidural administration” (Orion Corporation, priority 1998, dated 2002).

Like-named read-outs stand apart in the source and are kept apart here.

Data set [1] concerns rat. The data set can be described thus: Motor coordination: rotarod treadmill. As to conditions: intrathecal, 15 minutes after injection.
Excerpt: (§4) The rats (Sprague-Dawley, B&K, Sollentuna, Sweden) were anaesthetized by midazolam and fentanyl-fluanisone combination anaesthesia and then chronically catheterized according to the method described by Yaksh and Rudy (Physiology & Behaviour 17,1031-1036, 1976). Briefly, the atlanto-occipital membrane of the spine (directly below the skull) was incised. A polyethylene catheter (PE10 Intramedic, USA) filled with sterile saline was carefully and slowly pushed 8 cm into the spinal cavity. The end of the catheter is known to reach the close proximity of the lumbar enlargement of the spine. The location of the end of the catheter was tested by administering 0.5 mg lidocain approximately 3 days after catheterization. If both hindlegs were paralyzed, the rat was used in the drug tests.
(§5) The effect on motor coordination was evaluated by a rotarod treadmill for rats (Ugo Basile, Italy). It consists of four drums (diameter of 70 mm) separated by five flanges. The drums were adjusted to rotate 4 revolutions per minute. The rod was rotated against the direction of the rat, so it had to walk forward to stay on the rod. […]
(§6) Fifteen minutes after the drug injection, the rat was placed on the rotarod apparatus, and the falling time was measured. […] The dose-response curves were drawn on a logarithmic scale, and the ED50 values were determined graphically from these.
The next data set in a line: physchem. The protocol:
The hydrochloride salts of the above compounds were shaken for 90 minutes in a separatory funnel at room temperature with equal volumes (1:1, v/v) of an organic phase (water saturated 1-octanol) and an aqueous solution (0.1 M HCI or 67 mM phosphate buffer pH 7.4), separating the two phases. The quantitations of the amounts of the studied compounds were performed by the RP-HPLC (reverse phase high pressure liquid chromatography) technique. […] As a mobile phase, methanol: 15 mM phosphate buffer pH2 at the ratio 50:50 (v/v) was used.
The partition coefficient (P) is a ratio of the equilibrium concentrations of a solute in a lipophilic environment (1-octanol) and water (P=coct/cwater). The logarithm of the partition coefficient (logP) is used as a lipophilicity parameter for a neutral molecule. D is the partition coefficient measured at a pH where the molecules are partly or totally ionized.

Data set [2] concerns rat. The experiment in a line: in vivo. The protocol: (§1) There were 8 rats in each group tested.
(§2) Sedative effects (effects on motor activity) were measured in a polypropylene animal cage (38×22×15 cm) with a transparent polypropylene lid by Photobeam Activity System (PAS, Cage Rack, San Diego Instruments, San Diego, USA). The system consists of 16 separate enclosures connected to a computer control unit. There were three photobeams in each enclosure. The enclosures surrounded the cage at the height of 5 cm. The breaking of beams was counted as locomotor activity.
(§3) The analgesic activity and sedative effect after intravenous (to the tail vein) and subcutaneous administration were studied according to the methods described in Example 2.

Another data set is described as follows: in vivo. The conditions noted are these: Sprague-Dawley, rat. The protocol:
as §1, §2, §3

Data set [3] has as its system rat. As to conditions: Sprague-Dawley, in vivo.
Excerpt: as §4
Effects on gastrointestinal motility were measured in separate animals as follows (the charcoal propulsion test). The rats (8/group) were fasted overnight and were randomized according to the latin square design. 30 minutes after the administration of the drugs, a 10% charcoal suspension in 0.25% Na-carboxy-methylcellulose was administered perorally by a gavage. […] The distance of the charcoal suspension from the pylorus in the intestine was measured. […] The ED50 value of the dose-response graph was determined by the Graph Pad Prism v. […]
For data set [4], the system named is rat. The experiment in a line: Tail-flick analgesia test. Type of data set: in vivo. The procedure:
as §1
Tail-flick analgesia was tested by a tail-flick analgesy meter (Ugo Basile, Italy). The analgesia testing was done no earlier than four days after the catheterization. The rats were always habituated to the immobilization chambers that were used in the analgesia measurements. The tail of the rat was outside the chamber and it was placed on the heating spot of the apparatus. Thus, the hot infrared beam would hit the tail. When the rat reacted and moved the tail away from the beam, the analgesy meter automatically measured the latency of the tail-withdrawal. The tail-flick measurement was always repeated three times, one after another, to diminish the effect of a possible unspecific reaction. […] The maximal latency (cut-off time) was set to 5 seconds in order to prevent burns of the tail. The predrug tail-flick latencies were first measured, and then the rats were administered 10 μl of the drug solution by a Hamilton syringe. Immediately thereafter the catheter was washed with 10 μl of sterile saline, and the tip was sealed by a lighter. The analgesia was tested after 30 minutes from the administration of the drug by measuring tail-flick analgesia as described above.
The tail-flick analgesia data were represented as MPE% values (maximum possible effect %). The tail-flick latencies (mean of three measurements) were calculated as MPE% values as follows: (postdrug latency−predrug latency)/(cut-off time−predrug latency)×100%. The dose-response curves were drawn of the MPE% values, and the dose was on a logarithmic scale (see FIG. 1). […] 1.03 (San Diego, USA) software.
as §3

Data set [5] deals with rat. The conditions noted are these: Sprague-Dawley, in vivo, 15 min.
Excerpt: as §4, §5, §6

Compound `Oc1ccc2c(c1)C(Cc1c[nH]cn1)CC2` (centres unmarked) [Compound A, 3-(1H-imidazol-4-ylmethyl)-indan-5-ol] yielded an ED50 Loss of motor coordin. (decrease in rotarod performance) in the data set with rat [1] above 30 µg/rat. Besides, the log distribution coefficient (logD) at 90 min was -0.69 in the data set “physchem” (pH 1) and 1.91 in “physchem” (pH 7.4). In addition, the “Sedation at an analgesic dose” value in the data set on rat [2] is listed as “not to induce sedation”. Besides, the ED50 at 10 min came to 0.09 mg/kg in “in vivo” and 0.08 mg/kg in the data set “in vivo” (sc). The ED50 Inhib. of GI motility with rat [3] came to 5.7 µg/rat. Moreover, the ED50 in the data set with rat [4] (central, intrathecal (it), Table 2 result per rat multiplied by 3) is 0.0021 mg/kg; in the data set on rat [4] (intravenous (iv)) it was above 0.03 mg/kg; in the data set on rat [4] (subcutaneous (sc)), above 0.3 mg/kg. For the same compound, in the data set on rat [4] (intrathecal, 30 minutes after administration), the “ED50 Analgesia (tail-flick test)” value is 0.7 µg/rat.
In the case of `Clc1cccc(Cl)c1N=C1NCCN1` [Compound B, clonidine, reference compound], the “ED50 Loss of motor coordin. (decrease in rotarod performance)” value in the data set with rat [5] is listed as above 10 g/rat. The compound further gave an ED50 Inhib. of GI motility with rat [3] of 3.5 µg/rat.
On to “clonidine [Compound B, reference compound]”, for which, in the data set on rat [4] (in vivo), the “ED50 Analgesia (tail-flick test)” value is reported as 6.4 µg/rat.
